The supplement of paper PMC10307832

compound: C[C@]1(c2nc3c(C(N)=O)cccc3[nH]2)CCCN1 [Veliparib] + O=C(c1cc(Cc2n[nH]c(=O)c3ccccc23)ccc1F)N1CCN(C(=O)C2CC2)CC1 [Olaparib] (partner 8 µM); assay: relative viability (nuclei count vs DMSO), 5 days (fraction); higher = more cells survive; settings: first compound 2 µM
How it was run: (§1)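 One day after seeding in 1536-well plates, lung cancer cell lines were dosed by pin tool. Dosing was either single-drug or a fixed anchor-drug dose plus five library-drug doses (not always all listed) in √10 steps. After 5 days, nuclei were stained in one fix-and-stain step and counted on 4× images, and relative viability is the nuclei count of treated wells over that of vehicle wells, given as the median of duplicate plates.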

| Cell Line | relative viability |
| --- | --- |
| ChaGo-K-1 | 0.443 |
| Calu-6 | 0.664 |
| NCI-H1993 | 1.13 |
| HCC-44 | 1 |
| NCI-H647 | 0.572 |
| NCI-H2126 | 0.865 |
| NCI-H1755 | 0.915 |
| PC-3 [JPC-3] | 1.07 |
| NCI-H1792 | 0.397 |
| NCI-H2087 | 0.681 |
| NCI-H441 | 0.595 |
| HOP-62 | 0.383 |
| NCI-H2170 | 0.586 |
| NCI-H2347 | 0.576 |
| HARA | 0.722 |
| NCI-H1355 | 0.78 |
| NCI-H1915 | 0.254 |
| SK-MES-1 | 0.686 |

compound: C[C@]1(c2nc3c(C(N)=O)cccc3[nH]2)CCCN1 [Veliparib] + CC(=O)c1c(C)c2cnc(Nc3ccc(N4CCNCC4)cn3)nc2n(C2CCCC2)c1=O [Palbociclib] (partner 0.5 µM); assay: as above; settings: first compound 0.02 µM
How it was run: as §1

| Cell Line | relative viability |
| --- | --- |
| NCI-H2342 | 0.482 |
| LU99A | 0.495 |
| NCI-H1975 | 0.533 |
| H3255 | 0.344 |
| NCI-H2405 | 0.529 |
| SK-LU-1 | 0.426 |
| NCI-H1437 | 0.304 |
| HCC-15 | 0.679 |
| NCI-H460 | 0.147 |
| EMC-BAC-2 | 0.527 |
| NCI-H2009 | 0.145 |
| COR-L 105 | 0.402 |
| NCI-H1395 | 0.606 |
| NCI-H520 | 0.24 |
| NCI-H1648 | 0.257 |
| NCI-H358 | 0.117 |
| HCC-78 | 0.459 |
| NCI-H1650 | 0.236 |
| LK-2 | 0.662 |

| Cell Line | relative viability |
| --- | --- |
| LXF-289 | 0.577 |
| LC-2-ad | 0.485 |
| NCI-H1651 | 0.513 |
| COR-L23 | 0.27 |
| HCC-827 | 0.458 |
| NCI-H522 | 1.01 |
| LCLC-103H | 0.44 |
| RERF-LC-KJ | 1.07 |
| NCI-H3122 | 0.166 |
| BEN | 0.466 |
| UMC-11 | 0.314 |
| LCLC-97TM1 | 0.219 |
| NCI-H2085 | 0.454 |
| A-427 | 0.507 |
| NCI-H727 | 0.7 |
| NCI-H838 | 0.22 |
| NCI-H1793 | 0.31 |
| 201T | 0.352 |
| NCI-H2228 | 0.553 |

| Cell Line | relative viability |
| --- | --- |
| LOU-NH91 | 0.538 |
| NCI-H1666 | 0.574 |
| NCI-H650 | 0.309 |
| ChaGo-K-1 | 0.712 |
| HCC-44 | 1 |
| NCI-H647 | 0.392 |
| NCI-H2126 | 0.357 |
| NCI-H1755 | 0.46 |
| PC-3 [JPC-3] | 0.54 |
| NCI-H1792 | 0.635 |
| NCI-H2087 | 0.183 |
| NCI-H441 | 0.203 |
| HOP-62 | 0.384 |
| NCI-H2170 | 0.43 |
| NCI-H2347 | 0.44 |
| HARA | 0.352 |
| NCI-H1355 | 0.305 |
| NCI-H1915 | 0.541 |
| SK-MES-1 | 0.334 |

same assay, conditions: first compound 0.06325 µM

| Cell Line | relative viability |
| --- | --- |
| NCI-H2342 | 0.581 |
| LU99A | 0.399 |
| NCI-H1975 | 0.544 |
| H3255 | 0.309 |
| NCI-H2023 | 0.329 |
| SK-LU-1 | 0.379 |
| NCI-H1734 | 0.32 |
| NCI-H1437 | 0.323 |
| HCC-15 | 0.675 |
| NCI-H460 | 0.092 |
| EMC-BAC-2 | 0.487 |
| NCI-H2009 | 0.211 |
| COR-L 105 | 0.47 |
| NCI-H1395 | 0.58 |
| NCI-H520 | 0.239 |
| NCI-H358 | 0.136 |
| HCC-78 | 0.458 |
| EKVX | 0.42 |
| NCI-H1650 | 0.305 |
| EPLC-272H | 0.355 |
| LK-2 | 0.608 |

| Cell Line | relative viability |
| --- | --- |
| PC-14 | 0.514 |
| LXF-289 | 0.574 |
| LC-2-ad | 0.496 |
| SW 900 | 0.516 |
| NCI-H1651 | 0.497 |
| COR-L23 | 0.237 |
| HCC-827 | 0.459 |
| NCI-H522 | 0.864 |
| LCLC-103H | 0.417 |
| RERF-LC-KJ | 1.03 |
| NCI-H3122 | 0.147 |
| BEN | 0.491 |
| UMC-11 | 0.303 |
| LCLC-97TM1 | 0.194 |
| NCI-H2085 | 0.476 |
| A-427 | 0.51 |
| NCI-H727 | 0.689 |
| NCI-H838 | 0.191 |
| NCI-H1793 | 0.292 |
| 201T | 0.353 |
| NCI-H2228 | 0.897 |

| Cell Line | relative viability |
| --- | --- |
| LOU-NH91 | 0.546 |
| NCI-H1666 | 0.606 |
| NCI-H650 | 0.278 |
| ChaGo-K-1 | 0.951 |
| NCI-H1993 | 0.569 |
| HCC-44 | 0.834 |
| NCI-H647 | 0.325 |
| NCI-H2126 | 0.357 |
| NCI-H1755 | 0.469 |
| NCI-H1792 | 0.603 |
| NCI-H2087 | 0.222 |
| NCI-H441 | 0.222 |
| HOP-62 | 0.333 |
| NCI-H2170 | 0.446 |
| NCI-H2347 | 0.411 |
| HARA | 0.174 |
| NCI-H1355 | 0.396 |
| NCI-H1915 | 0.461 |
| SK-MES-1 | 0.278 |

same assay, conditions: first compound 0.2 µM

| Cell Line | relative viability |
| --- | --- |
| NCI-H2342 | 0.503 |
| LU99A | 0.418 |
| NCI-H1975 | 0.513 |
| H3255 | 0.298 |
| NCI-H2023 | 0.391 |
| NCI-H2405 | 0.569 |
| SK-LU-1 | 0.394 |
| NCI-H1734 | 0.351 |
| NCI-H1437 | 0.281 |
| ABC-1 | 0.863 |
| HCC-15 | 0.782 |
| NCI-H460 | 0.11 |
| EMC-BAC-2 | 0.512 |
| NCI-H2009 | 0.235 |
| COR-L 105 | 0.4 |
| NCI-H1395 | 0.614 |
| NCI-H520 | 0.254 |
| NCI-H358 | 0.153 |
| HCC-78 | 0.454 |
| EKVX | 0.403 |
| NCI-H1650 | 0.28 |
| EPLC-272H | 0.35 |
| LK-2 | 0.707 |
| PC-14 | 0.51 |
| LXF-289 | 0.554 |
| LC-2-ad | 0.508 |
| SW 900 | 0.557 |
| NCI-H1651 | 0.52 |
| COR-L23 | 0.252 |
